Key:
[1] = test system: cAMP/CREB pathway (GAL4-CREB fusion); test: Luciferase reporter assay in RCLH-CREB stable reporter cells treated with extracellular stimuli; format: cell-based, human; conditions: in the presence of 100 uM forskolin, 5 hours
[2] = test system: MAPK pathway converging on Elk1 (GAL4-Elk1 fusion); test: Luciferase reporter assay in RCLH-Elk1 stable reporter cells treated with extracellular stimuli; conditions: separate experiment

Row | Compound | Stimulation of luciferase expression [1] | Activation of MAPK pathways [2]
1 | CCCCCCCCCCCCCC(=O)O[C@@H]1[C@@H](C)[C@@]2(O)[C@@H](C=C(CO)C[C@]3(O)C(=O)C(C)=C[C@@H]23)[C@@H]2C(C)(C)[C@]12OC(C)=O [PMA, phorbol 12-myristate 13-acetate] | approximately 70 fold | –
2 | TGF-α: growth factor found to activate MAPK pathways | – | also activates MAPK pathways

Source: patent US20050106730A1, “Compositions and methods utilizing stable reporter cell lines for detection of pathway-specific signal transduction” (priority 1999, published 2005)
